{"source": "patent US20230129866A1", "about": "(PureTech LYT 100, Inc., priority 2020, published 2023)", "key": {"L929 cells": {"test_system": "L929 cells", "experiment": "TGF-induced collagen synthesis in L929 cells, 6-wells (SIRCOL)", "format": "cell-based", "settings": "72 hrs, FIG. 4B", "procedure": "100,000 L929 cells were plated in complete DMEN and incubated until confluency for 3 days. Medium was removed and complete DMEM containg Prolin ([…]) and ascorbic acid (10 μM) was added. […] Cells were further incubated for 72 hrs. Supernatant was removed, cells were washed with cold PBS, 1 ml SIRCOL reagent was added onto the cells and cells were scraped off, samples were shaken for 5 h.at RT, centrifuged at 10.000 rpm for 5 min, supernatant was removed, pellet was dissolved in 0.5 M acetic acid to remove unbound dye, and re-centrifuged at 10.000 rpm for 5 min, supernatant was removed and final pelet was dissolved in 1 ml 0.5M NaOH, shaken at RT for 5 h, 100 μl of resulted solution was placed in 96-well and O.D was determined at 600."}, "LPS-induced plasma TNFα": {"test_system": "LPS-induced plasma TNFα", "experiment": "LPS-induced plasma TNF-α after oral pretreatment in rats", "format": "in vivo, Sprague-Dawley rats", "settings": "Mean ± St. Dev., n = 6-8; for Plasma TNFα concentrations 4 hours after LPS: vehicle 693 ± 553; for Plasma TNFα concentrations 1.5 hours after LPS: vehicle 75389 ± 29107", "procedure": "LPS was diluted with sterile saline to […] and sonicated at 40° C. for 20 minutes to generate a stock solution and stored at 4° C. Each day of use, the stock solution was further diluted to 0.03 mg/mL in sterile saline.\nMale Sprague-Dawley rats with indwelling femoral and jugular venous catheters (n=6-8 per dose and test article group) were used in this study. […] Sixty minutes after the oral dose, 0.03 mg/kg of LPS in 1 mL/kg saline was infused into the jugular vein.\nBlood samples were collected from the femoral vein into heparin-coated syringes 15 minutes prior to the LPS infusion (45 minutes after oral doses of test article), 90 minutes after the LPS infusion and 4 hours after the LPS infusion. Plasma was prepared by centrifugation of the blood samples at 14,000 rpm for 10 minutes. Plasma samples were stored at −70 ° C. until analysis."}, "[1]": {"experiment": "In vitro comparative mass balance and metabolite studies in liver microsomes", "format": "in vitro ADME, human, rat, dog, mouse, monkey", "excerpt": "Both LYT-100 and pirfenidone share a common major metabolite."}, "[2]": {"settings": "human, in vivo, po"}, "[3]": {"settings": "30 mg/kg oral pretreatment 1 hour prior to LPS injection"}, "[4]": {"settings": "100 mg/kg oral pretreatment 1 hour prior to LPS injection"}, "[5]": {"settings": "300 mg/kg oral pretreatment 1 hour prior to LPS injection"}}, "data": [{"smiles": "[2H]C([2H])([2H])c1ccc(=O)n(-c2ccccc2)c1", "note": "[LYT-100, 5-(methyl-d3)-1-phenylpyridin-2-(1H)-one]", "values": [{"measurement": "Effect on TGF-induced collagen synthesis", "setting": "L929 cells; 500 μM 1 hour prior to TGF-β 5 ng/ml", "value": "inhibits"}, {"measurement": "Effect on collagen synthesis in the absence of added TGF-β", "setting": "L929 cells; 500 μM", "value": "significantly inhibits"}, {"measurement": "Plasma TNFα concentrations 4 hours after LPS", "setting": "LPS-induced plasma TNFα; [3]", "value": "274 ± 95", "unit": "pg/mL"}, {"measurement": "Plasma TNFα concentrations 1.5 hours after LPS", "setting": "LPS-induced plasma TNFα; [3]", "value": "46382 ± 23254", "unit": "pg/mL"}, {"measurement": "Plasma TNFα concentrations 4 hours after LPS", "setting": "LPS-induced plasma TNFα; [4]", "value": "129 ± 65", "unit": "pg/mL"}, {"measurement": "Plasma TNFα concentrations 1.5 hours after LPS", "setting": "LPS-induced plasma TNFα; [4]", "value": "6403 ± 4812", "unit": "pg/mL"}, {"measurement": "Plasma TNFα concentrations 4 hours after LPS", "setting": "LPS-induced plasma TNFα; [5]", "value": "79 ± 46", "unit": "pg/mL"}, {"measurement": "Plasma TNFα concentrations 1.5 hours after LPS", "setting": "LPS-induced plasma TNFα; [5]", "value": "3162 ± 2668", "unit": "pg/mL"}, {"measurement": "Novel metabolites through deuteration", "setting": "[1]; human, rat, dog, mouse, and monkey liver microsomes", "value": "did not introduce novel"}, {"measurement": "Rate of metabolism compared with pirfenidone", "setting": "[1]; liver microsomes", "value": "occurred more slowly"}, {"measurement": "Tolerability of single doses", "setting": "[2]", "value": "well tolerated"}]}]}
